Assay [1] has as its system U2OS. In words: (§1) Here: values are normalized to the negative (DMSO; defined as 0% autophagy induction) and positive (250nM Torin1; mTOR inhibitor; defined as maximal inducer of autophagy = 100%) control compounds and represented as % of autophagy induction. […] The impact of autophagy induction on cells is complex and depends on the affected target. As such, the magnitude of a phenotype may not be equally mirrored in the %-value of autophagy induction and vice versa. The dynamics of the induction may indicate the mode of activation: e.g. activation via phosphorylation or a signaling cascade may occur fast, while activation via transcription factors may take considerably longer. […] Of note, treatment concentrations may be sub-optimal for specific compounds, leading to false negative annotations. The format is functional, Homo sapiens. To be noted: Culturing Media DMEM, 1 % Penicillin/Streptomycin, 10% Fetal bovin serum Add-On: No, Screening Media Control DMEM, Screening Media Samples DMEM.

The test system of assay [2] is U2OS. Described as §1. To be noted: Culturing Media DMEM, 1 % Penicillin/Streptomycin, 10% Fetal bovin serum Add-On: No, Screening Media Control DMEM, Screening Media Samples DMEM. The format is functional, Homo sapiens. This is another data set of the same source.
The mark [3] stands for this setting: Compound Concentration 0.5 uM, Timepoint 12 hours.
[4] abbreviates: Compound Concentration 0.5 uM, Timepoint 24 hours.
Setting [5] is: Compound Concentration 0.5 uM, Timepoint 36 hours.
Setting [6] is: Compound Concentration 0.5 uM, Timepoint 60 hours.
Setting [7] is: Compound Concentration 2 uM, Timepoint 12 hours.
The mark [8] stands for this setting: Compound Concentration 2 uM, Timepoint 24 hours.
The mark [9] stands for this setting: Compound Concentration 2 uM, Timepoint 36 hours.
The mark [10] stands for this setting: Compound Concentration 2 uM, Timepoint 60 hours.
[11] abbreviates: Compound Concentration 10 uM, Timepoint 12 hours.
Setting [12] is: Compound Concentration 10 uM, Timepoint 24 hours.
Where [13] appears, read: Compound Concentration 10 uM, Timepoint 36 hours.
[14] abbreviates: Compound Concentration 10 uM, Timepoint 60 hours.

For the compound `Cc1cc(NC(=O)Nc2ccc(N(C)C)cc2)c2cc(F)cc(F)c2n1`, the autophagy induction is recorded as -2.687% with U2OS [1] (setting [3]); -3.664% in the assay on U2OS [1] (setting [4]); -3.669% with U2OS [1] (setting [5]); 114.219% in the assay with U2OS [1] (setting [6]); -0.9187% in the assay with U2OS [1] (setting [7]); -2.555% in the assay with U2OS [1] (setting [8]). In addition, the autophagy induction in the assay with U2OS [1] (setting [9]) is on record as -1.904%; with U2OS [1] (setting [10]), 114.2%; with U2OS [1] (setting [11]), 1.036%; with U2OS [1] (setting [12]), -2.2709%; in the assay with U2OS [1] (setting [13]) it was 0.4658%; in the assay with U2OS [1] (setting [14]) it was 113.441%. In addition, the autophagy induction in the assay on U2OS [2] (setting [3]) is reported as -3.035%; in the assay on U2OS [2] (setting [4]), -2.6114%; in the assay with U2OS [2] (setting [5]) it was -4.581%; with U2OS [2] (setting [6]) it was -2.138%; with U2OS [2] (setting [7]) it was -10.8002%; in the assay with U2OS [2] (setting [8]), -10.6502%. Further, the autophagy induction is listed as -6.099% in the assay on U2OS [2] (setting [9]); -2.686% in the assay with U2OS [2] (setting [10]); 2.643% in the assay with U2OS [2] (setting [11]); 9.654% with U2OS [2] (setting [12]); 13.8869% in the assay on U2OS [2] (setting [13]); 31.5866% in the assay with U2OS [2] (setting [14]).

With `COc1ccc(Br)cc1S(=O)(=O)NC(=O)/C=C/c1ccccc1Cc1ccc2ccccc2c1`, the autophagy induction with U2OS [1] (setting [3]) is recorded as 8.106%; in the assay with U2OS [1] (setting [4]) it was 0.9964%; with U2OS [1] (setting [5]) it was -0.06695%; with U2OS [1] (setting [6]) it was 114.397%; in the assay on U2OS [1] (setting [7]) it was -1.7757%; in the assay with U2OS [1] (setting [8]), -1.309%. For the same compound, the autophagy induction with U2OS [1] (setting [9]) is on record as -1.876%; in the assay with U2OS [1] (setting [10]), 114.114%; with U2OS [1] (setting [11]), -6.0177%; in the assay on U2OS [1] (setting [12]), -3.111%; in the assay on U2OS [1] (setting [13]), -1.417%; in the assay on U2OS [1] (setting [14]), 114.143%. Besides, the autophagy induction in the assay with U2OS [2] (setting [3]) is 10.8816%; with U2OS [2] (setting [4]) it was 4.975%; in the assay on U2OS [2] (setting [5]), 5.043%; with U2OS [2] (setting [6]), 1.1971%; with U2OS [2] (setting [7]), -3.861%; in the assay on U2OS [2] (setting [8]) it was -4.459%. The autophagy induction is reported as -4.477% in the assay on U2OS [2] (setting [9]); -3.627% with U2OS [2] (setting [10]); 11.1214% with U2OS [2] (setting [11]); -0.228% with U2OS [2] (setting [12]); 3.111% in the assay with U2OS [2] (setting [13]); -1.844% with U2OS [2] (setting [14]).

Consider `O=C(O)CC/C=C\C[C@@H]1CO[C@H](c2ccccc2Cl)O[C@@H]1c1ccccc1O`, for which the autophagy induction is given as -2.932% in the assay with U2OS [1] (setting [3]); -1.885% with U2OS [1] (setting [4]); -1.616% in the assay on U2OS [1] (setting [5]); 114.317% in the assay with U2OS [1] (setting [6]); -0.3574% with U2OS [1] (setting [7]); -1.612% in the assay on U2OS [1] (setting [8]). The autophagy induction in the assay with U2OS [1] (setting [9]) is reported as -1.86%; in the assay on U2OS [1] (setting [10]) it was 114.217%; in the assay with U2OS [1] (setting [11]), -0.147%; in the assay with U2OS [1] (setting [12]) it was -2.085%; in the assay on U2OS [1] (setting [13]) it was -2.519%; with U2OS [1] (setting [14]), 114.255%. Moreover, the autophagy induction is on record as -1.049% in the assay on U2OS [2] (setting [3]); 2.549% in the assay on U2OS [2] (setting [4]); 1.3825% in the assay on U2OS [2] (setting [5]); -3.206% with U2OS [2] (setting [6]); -3.826% in the assay with U2OS [2] (setting [7]); -5.258% in the assay with U2OS [2] (setting [8]). For the same compound, the autophagy induction with U2OS [2] (setting [9]) is reported as 1.68%; in the assay on U2OS [2] (setting [10]), -8.886%; in the assay on U2OS [2] (setting [11]) it was 0.2701%; in the assay on U2OS [2] (setting [12]), -2.3073%; in the assay with U2OS [2] (setting [13]) it was -0.4123%; in the assay with U2OS [2] (setting [14]), -4.081%.

On to `Cc1cc([C@@H](C)Nc2cccc(-c3cc(C)c(C(=O)N[C@@H](C)C(=O)O)c(C)c3)c2)ccc1Cl`, for which the autophagy induction was -1.358% in the assay on U2OS [1] (setting [3]); -0.4353% with U2OS [1] (setting [4]); -1.357% in the assay on U2OS [1] (setting [5]); 114.287% in the assay with U2OS [1] (setting [6]); 0.7384% with U2OS [1] (setting [7]); 3.004% with U2OS [1] (setting [8]). In addition, the autophagy induction with U2OS [1] (setting [9]) is given as -0.1787%; with U2OS [1] (setting [10]), 114.309%; in the assay with U2OS [1] (setting [11]), 25.7636%; with U2OS [1] (setting [12]), 8.275%; in the assay with U2OS [1] (setting [13]), 1.804%; in the assay with U2OS [1] (setting [14]), 114.446%. Further, the autophagy induction is -5.116% in the assay on U2OS [2] (setting [3]); -3.567% in the assay with U2OS [2] (setting [4]); -5.902% in the assay with U2OS [2] (setting [5]); -1.838% with U2OS [2] (setting [6]); -9.884% in the assay with U2OS [2] (setting [7]); -6.925% in the assay with U2OS [2] (setting [8]). Further, the autophagy induction in the assay on U2OS [2] (setting [9]) is -1.645%; with U2OS [2] (setting [10]), 5.389%; in the assay with U2OS [2] (setting [11]), 8.557%; in the assay with U2OS [2] (setting [12]), 0.1878%; with U2OS [2] (setting [13]) it was -1.416%; in the assay with U2OS [2] (setting [14]), -9.482%.

With `COc1cccc(-c2c(C)n(Cc3c(F)cccc3C(F)(F)F)c(=O)n(C[C@H](NCCCC(=O)[O-])c3ccccc3)c2=O)c1F.[Na+]` [ELAGOLIX SODIUM], the autophagy induction is given as -3.352% in the assay with U2OS [1] (setting [3]); -3.1643% with U2OS [1] (setting [4]); -0.7483% in the assay on U2OS [1] (setting [5]); -1111.24% in the assay with U2OS [1] (setting [6]); -6.63% in the assay with U2OS [1] (setting [7]); -5.163% in the assay on U2OS [1] (setting [8]). In addition, the autophagy induction in the assay with U2OS [1] (setting [9]) is recorded as -4.643%; with U2OS [1] (setting [10]) it was 114.391%; in the assay with U2OS [1] (setting [11]), -2.89%; in the assay on U2OS [1] (setting [12]), -3.023%; with U2OS [1] (setting [13]) it was -0.9947%; in the assay with U2OS [1] (setting [14]) it was 114.218%. Moreover, the autophagy induction is recorded as 4.133% in the assay on U2OS [2] (setting [3]); 4.438% in the assay on U2OS [2] (setting [4]); 6.469% with U2OS [2] (setting [5]); -7.02% in the assay on U2OS [2] (setting [6]); 12.3647% in the assay with U2OS [2] (setting [7]); 8.125% in the assay on U2OS [2] (setting [8]). Also, the autophagy induction in the assay with U2OS [2] (setting [9]) was 1.282%; with U2OS [2] (setting [10]) it was -8.542%; in the assay on U2OS [2] (setting [11]), -6.525%; in the assay on U2OS [2] (setting [12]), -4.485%; with U2OS [2] (setting [13]), -1.897%; in the assay on U2OS [2] (setting [14]) it was -2.895%.

Values taken from ChEMBL document CHEMBL5724696, “Autophagy assay results for EUbOPEN Chemogenomics Library” (2024).
